Measured values taken from the supplement of paper PMC10307832.

How the values were obtained:
Experiment in all cases: relative viability (nuclei count vs DMSO), 5 days (fraction); higher = more cells survive
HCC-827 = test system: HCC-827
Procedure, shortened: (§1)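 A single step with final 0.05% Triton X-100, 1% formaldehyde and 1 ug/ml Hoechst fixed the cells and stained nuclei 5 days after treatment. Lung cancer cell lines in 1536-well plates had been treated by pin tool the day after seeding with one drug alone or a fixed anchor-drug dose plus five library-drug doses (not always all listed) in √10 steps, and nuclei were counted on 4× images. Relative viability is the ratio of nuclei in treated wells to nuclei in vehicle wells, taken as the median of duplicate plates.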

NCI-H1395 = test system: NCI-H1395
Procedure, shortened: as §1

LCLC-103H = test system: LCLC-103H
Procedure, shortened: as §1

EPLC-272H = test system: EPLC-272H
Procedure, shortened: as §1

NCI-H23 = test system: NCI-H23
Procedure, shortened: as §1

NCI-H2405 = test system: NCI-H2405
Procedure, shortened: as §1

H3255 = test system: H3255
Procedure, shortened: as §1

NCI-H1944 = test system: NCI-H1944
Procedure, shortened: as §1

NCI-H2087 = test system: NCI-H2087
Procedure, shortened: as §1

NCI-H1355 = test system: NCI-H1355
Procedure, shortened: as §1

LCLC-97TM1 = test system: LCLC-97TM1
Procedure, shortened: as §1

UMC-11 = test system: UMC-11
Procedure, shortened: as §1

NCI-H2085 = test system: NCI-H2085
Procedure, shortened: as §1

SK-MES-1 = test system: SK-MES-1
Procedure, shortened: as §1

HCC-44 = test system: HCC-44
Procedure, shortened: as §1

NCI-H520 = test system: NCI-H520
Procedure, shortened: as §1

NCI-H1993 = test system: NCI-H1993
Procedure, shortened: as §1

NCI-H1793 = test system: NCI-H1793
Procedure, shortened: as §1

NCI-H650 = test system: NCI-H650
Procedure, shortened: as §1

EMC-BAC-2 = test system: EMC-BAC-2
Procedure, shortened: as §1

NCI-H1563 = test system: NCI-H1563
Procedure, shortened: as §1

NCI-H1651 = test system: NCI-H1651
Procedure, shortened: as §1

NCI-H322M = test system: NCI-H322M
Procedure, shortened: as §1

ChaGo-K-1 = test system: ChaGo-K-1
Procedure, shortened: as §1

C[C@@H]1CN(CC(=O)Nc2ccc3c(c2)Cc2cccc(-c4cc(=O)cc(N5CCOCC5)o4)c2S3)C[C@H](C)O1 + CS(=O)(=O)N1CCN(Cc2cc3nc(-c4cccc5[nH]ncc45)nc(N4CCOCC4)c3s2)CC1 [Pictilisib] (partner 1 µM)
relative viability (HCC-827; first compound 0.04 µM): 0.987
relative viability (HCC-827; first compound 0.1265 µM): 1.03
relative viability (HCC-827; first compound 0.4 µM): 1.22
relative viability (HCC-827; first compound 4 µM): 0.995
relative viability (NCI-H1395; first compound 0.04 µM): 0.66
relative viability (NCI-H1395; first compound 0.1265 µM): 0.556
relative viability (NCI-H1395; first compound 0.4 µM): 0.502
relative viability (NCI-H1395; first compound 4 µM): 0.559
relative viability (LCLC-103H; first compound 0.04 µM): 0.547
relative viability (LCLC-103H; first compound 0.1265 µM): 0.557
relative viability (LCLC-103H; first compound 0.4 µM): 0.582
relative viability (LCLC-103H; first compound 4 µM): 0.668
relative viability (EPLC-272H; first compound 0.04 µM): 0.272
relative viability (EPLC-272H; first compound 0.1265 µM): 0.305
relative viability (EPLC-272H; first compound 0.4 µM): 0.3
relative viability (EPLC-272H; first compound 4 µM): 0.289
relative viability (NCI-H23; first compound 0.04 µM): 0.448
relative viability (NCI-H23; first compound 0.1265 µM): 0.499
relative viability (NCI-H23; first compound 0.4 µM): 0.483
relative viability (NCI-H23; first compound 4 µM): 0.543
relative viability (NCI-H2405; first compound 0.04 µM): 0.414
relative viability (NCI-H2405; first compound 0.1265 µM): 0.461
relative viability (NCI-H2405; first compound 0.4 µM): 0.358
relative viability (NCI-H2405; first compound 4 µM): 0.406
relative viability (H3255; first compound 0.04 µM): 0.483
relative viability (H3255; first compound 0.1265 µM): 0.535
relative viability (H3255; first compound 0.4 µM): 0.452
relative viability (H3255; first compound 4 µM): 0.446
relative viability (NCI-H1944; first compound 0.1265 µM): 0.328
relative viability (NCI-H1944; first compound 0.4 µM): 0.336
relative viability (NCI-H1944; first compound 4 µM): 0.33
relative viability (NCI-H2087; first compound 0.04 µM): 1.05
relative viability (NCI-H2087; first compound 0.1265 µM): 0.806
relative viability (NCI-H2087; first compound 0.4 µM): 1.02
relative viability (NCI-H2087; first compound 4 µM): 0.541
relative viability (NCI-H1355; first compound 0.04 µM): 0.229
relative viability (NCI-H1355; first compound 0.1265 µM): 0.43
relative viability (NCI-H1355; first compound 0.4 µM): 0.418
relative viability (NCI-H1355; first compound 4 µM): 0.331
relative viability (LCLC-97TM1; first compound 0.1265 µM): 0.191
relative viability (LCLC-97TM1; first compound 0.4 µM): 0.144
relative viability (LCLC-97TM1; first compound 4 µM): 0.18
relative viability (UMC-11; first compound 0.04 µM): 0.769
relative viability (UMC-11; first compound 0.1265 µM): 0.791
relative viability (UMC-11; first compound 0.4 µM): 0.75
relative viability (UMC-11; first compound 4 µM): 0.649
relative viability (NCI-H2085; first compound 0.04 µM): 0.476
relative viability (NCI-H2085; first compound 0.1265 µM): 0.484
relative viability (NCI-H2085; first compound 0.4 µM): 0.425
relative viability (NCI-H2085; first compound 4 µM): 0.492
relative viability (SK-MES-1; first compound 0.04 µM): 0.381
relative viability (SK-MES-1; first compound 0.1265 µM): 0.377
relative viability (SK-MES-1; first compound 0.4 µM): 0.356
relative viability (SK-MES-1; first compound 4 µM): 0.355
relative viability (HCC-44; first compound 0.04 µM): 0.616
relative viability (HCC-44; first compound 0.1265 µM): 0.573
relative viability (HCC-44; first compound 0.4 µM): 0.465
relative viability (HCC-44; first compound 4 µM): 0.287
relative viability (NCI-H520; first compound 0.04 µM): 0.329
relative viability (NCI-H520; first compound 0.1265 µM): 0.281
relative viability (NCI-H520; first compound 0.4 µM): 0.31
relative viability (NCI-H520; first compound 4 µM): 0.374
relative viability (NCI-H1993; first compound 0.04 µM): 0.76
relative viability (NCI-H1993; first compound 0.1265 µM): 0.927
relative viability (NCI-H1993; first compound 0.4 µM): 0.994
relative viability (NCI-H1993; first compound 4 µM): 0.912
relative viability (NCI-H1793; first compound 0.04 µM): 0.374
relative viability (NCI-H1793; first compound 0.1265 µM): 0.297
relative viability (NCI-H1793; first compound 0.4 µM): 0.346
relative viability (NCI-H1793; first compound 4 µM): 0.335
relative viability (NCI-H650; first compound 0.04 µM): 0.828
relative viability (NCI-H650; first compound 0.1265 µM): 0.886
relative viability (NCI-H650; first compound 0.4 µM): 0.89
relative viability (NCI-H650; first compound 4 µM): 0.806
relative viability (EMC-BAC-2; first compound 0.04 µM): 0.559
relative viability (EMC-BAC-2; first compound 0.1265 µM): 0.528
relative viability (EMC-BAC-2; first compound 0.4 µM): 0.429
relative viability (EMC-BAC-2; first compound 4 µM): 0.514
relative viability (NCI-H1563; first compound 0.04 µM): 0.616
relative viability (NCI-H1563; first compound 0.1265 µM): 0.661
relative viability (NCI-H1563; first compound 0.4 µM): 0.702
relative viability (NCI-H1563; first compound 4 µM): 0.711
relative viability (NCI-H1651; first compound 0.04 µM): 0.59
relative viability (NCI-H1651; first compound 0.1265 µM): 0.491
relative viability (NCI-H1651; first compound 0.4 µM): 0.612
relative viability (NCI-H1651; first compound 4 µM): 0.568
relative viability (NCI-H322M; first compound 0.04 µM): 0.365
relative viability (NCI-H322M; first compound 0.1265 µM): 0.506
relative viability (NCI-H322M; first compound 0.4 µM): 0.452
relative viability (NCI-H322M; first compound 4 µM): 0.565
relative viability (ChaGo-K-1; first compound 0.1265 µM): 0.633
relative viability (ChaGo-K-1; first compound 0.4 µM): 0.577
relative viability (ChaGo-K-1; first compound 4 µM): 0.686
